Results as given in BindingDB's records for doi:10.7270/Q2N014XN (Srmlsc, 2007).

Molecular target: T1, Diphosphomevalonate decarboxylase (Streptococcus pneumoniae serotype 2 (strain D39 / NCTC 7466), UniProt A0A0H2ZN59)
T1 sequence (A0A0H2ZN59 whole entry): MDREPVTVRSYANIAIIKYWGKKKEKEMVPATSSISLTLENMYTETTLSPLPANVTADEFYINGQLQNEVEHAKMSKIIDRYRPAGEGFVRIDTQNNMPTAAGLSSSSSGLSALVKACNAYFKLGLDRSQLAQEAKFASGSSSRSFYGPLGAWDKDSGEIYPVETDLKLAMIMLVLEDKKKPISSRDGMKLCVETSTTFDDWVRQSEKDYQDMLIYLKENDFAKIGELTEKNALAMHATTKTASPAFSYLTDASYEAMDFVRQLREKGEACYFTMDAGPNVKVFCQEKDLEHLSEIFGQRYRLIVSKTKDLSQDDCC
Assay: S. pneumoniae DPM-DC inhibitor potency, dose response, biochemical, PK/LDH-coupled NADH fluorescence, hexokinase coupling counter-screen (AID 550)

Row | Structure (SMILES) | IC50 [µM]
1 | Cc1oc2cc(O)ccc2c(=O)c1N1C(=O)c2ccccc2C1=O [2-(2-methyl-7-oxidanyl-4-oxidanylidene-chromen-3-yl)isoindole-1,3-dione] | 50.5
2 | CCc1cc(C(Cc2ccc3ccccc3n2)N=O)c(O)cc1O (configuration not stated) [(6Z)-4-ethyl-3-hydroxy-6-[1-(hydroxyamino)-2-(2-quinolinyl)ethylidene]-1-cyclohexa-2,4-dienone] | > 10000
3 | COCCCn1c(=S)[nH]c2ccc(N3CCOCC3)cc2c1=O [MLS000095418] | 26.7
4 | CCOC(=O)c1cc2nc(Nc3ccc(OC)cc3)sc2s1 [2-(4-methoxyanilino)-5-thieno[3,2-d]thiazolecarboxylic acid ethyl ester] | 44.6
5 | COc1ccc(-n2nc(C(=O)NCc3ccco3)c3c4ccccc4n(C)c3c2=O)cc1Cl [3-(3-chloranyl-4-methoxy-phenyl)-N-(furan-2-ylmethyl)-5-methyl-4-oxidanylidene-pyridazino[4,5-b]indole-1-carboxamide] | 15.1
6 | CCn1c(SCC(=O)Nc2cccc(C(C)=O)c2)nnc1C(C)C [MLS000073205] | > 10000
7 | CN(C)Cc1nc2ccccc2c(=O)n1Cc1nc(-c2cc3ccccc3o2)cs1 [3-[[4-(1-benzofuran-2-yl)-1,3-thiazol-2-yl]methyl]-2-[(dimethylamino)methyl]quinazolin-4-one] | > 10000
8 | CCOC(=O)c1c(C)n(OCc2ccccc2)c2ccc3c(n[o+]n3[O-])c12 [6-benzoxy-7-methyl-3-oxido-pyrrolo[2,3-g][2,1,3]benzoxadiazol-3-ium-8-carboxylic acid ethyl ester] | > 10000
9 | O=S(=O)(Nc1cccc2ncccc12)c1cccs1 [MLS000057468] | > 10000
10 | Cc1cc(-c2ccccc2)nc2cc(C(N)=O)nn12 [7-methyl-5-phenyl-2-pyrazolo[1,5-a]pyrimidinecarboxamide] | > 10000
11 | O=c1c2cc(N3CCOCC3)ccc2[nH]c(=S)n1CCCN1CCN(c2ccccc2F)CC1 [SMR000030978] | 58.7
12 | Cc1cccc(OCC(O)Cn2c(-n3nc(C)cc3C)nc3c2c(=O)[nH]c(=O)n3C)c1 (configuration not stated) [8-(3,5-dimethylpyrazol-1-yl)-7-[2-hydroxy-3-(3-methylphenoxy)propyl]-3-methylpurine-2,6-dione] | > 10000
13 | COC(=O)Cc1sc(=O)[nH]c1Nc1ccccc1 [MLS000111966] | > 10000
14 | O=C(NC1CCCCC1)N(CCN1CCCC1)Cc1cc2cc3c(cc2[nH]c1=O)OCCO3 [3-cyclohexyl-1-[(7-oxo-3,6-dihydro-2H-[1,4]dioxino[2,3-g]quinolin-8-yl)methyl]-1-[2-(1-pyrrolidinyl)ethyl]urea] | 15
15 | CC(=O)NCCn1c(SCc2cc(=O)n3cc(Cl)ccc3n2)nc2ccccc2c1=O [MLS000095256] | 70.6
16 | O=c1c2cc(N3CCOCC3)ccc2[nH]c(=S)n1Cc1ccccn1 [MLS000095415] | 36.1
17 | Cn1ncc2c(Nc3ccc(-c4ccccc4)cc3)ncnc21 [(1-methylpyrazolo[3,4-d]pyrimidin-4-yl)-(4-phenylphenyl)amine] | 53.7
18 | COc1ccc(CCn2c(N)c(S(=O)(=O)c3cccs3)c3nc4ccccc4nc32)cc1OC [1-[2-(3,4-dimethoxyphenyl)ethyl]-3-thiophen-2-ylsulfonyl-2-pyrrolo[3,2-b]quinoxalinamine] | 105
19 | Cn1cc(O)nc1NC(=O)C12CC3CC(CC(C3)C1)C2 | > 10000
20 | Cc1ccc2cc3c(NC(=O)c4ccco4)nn(C)c3nc2c1 [MLS000041273] | 45.7
21 | COc1cccc(C(=O)Nc2ccc(NC(=O)C(C)C)nc2)c1 [3-methoxy-N-[6-(2-methylpropanoylamino)pyridin-3-yl]benzamide] | > 10000
22 | Cc1cc(N2CCN(C(=O)c3ccco3)CC2)n2nc(-c3cccc(Cl)c3)cc2n1 [MLS000076302] | > 10000
23 | CCc1c(C)c(C#N)c2nc3ccccc3n2c1Nc1c(C)n(C)n(-c2ccccc2)c1=O [1-[(1,5-dimethyl-3-oxidanylidene-2-phenyl-pyrazol-4-yl)amino]-2-ethyl-3-methyl-pyrido[1,2-a]benzimidazole-4-carbonitrile] | > 10000
24 | O=C(c1cc2nc(-c3ccc(F)cc3)cc(C(F)(F)F)n2n1)N1CCCC1 [MLS000109312] | 53
25 | Cc1cccc(Nc2nnc(S)s2)c1C [5-(2,3-dimethylanilino)-3H-1,3,4-thiadiazole-2-thione] | 188
26 | CCCn1c(=O)c2ccccc2n2c(SCC(=O)C(C#N)C(C)=N)nnc12 (configuration not stated) [(E)-3-amino-2-[1-oxo-2-[(5-oxo-4-propyl-[1,2,4]triazolo[4,3-a]quinazolin-1-yl)thio]ethyl]-2-butenenitrile] | > 10000

Row | Structure (SMILES) | IC50 [µM]
27 | Nc1nc(N)c2sc3nc4c(cc3c2n1)CCC4 [2,3-Dihydro-1H-9-thia-5,7,10-triaza-cyclopenta[b]fluorene-6,8-diamine] | > 10000
28 | CCN(CC)S(=O)(=O)c1ccc(NC(=O)c2cccc3c2C(=O)N(CCOC)C3)cc1 [MLS000045293] | 50.5
29 | COc1ccc(-c2cc(C(F)(F)F)n3nc(C(=O)N4CCC5(CC4)OCCO5)cc3n2)cc1OC [8-{[5-(3,4-dimethoxyphenyl)-7-(trifluoromethyl)pyrazolo[1,5-a]pyrimidin-2-yl]carbonyl}-1,4-dioxa-8-azaspiro[4.5]decane] | 75.3
30 | Cc1nc2nc(C)c(CCC(=O)N3CCOCC3)c(C)n2n1 [1-(4-morpholinyl)-3-(2,5,7-trimethyl-[1,2,4]triazolo[1,5-a]pyrimidin-6-yl)-1-propanone] | > 10000
31 | Cc1cccc2cc(CN(Cc3ccco3)S(=O)(=O)c3ccc4c(c3)OCCO4)c(=O)[nH]c12 [N-(furan-2-ylmethyl)-N-[(8-methyl-2-oxidanylidene-1H-quinolin-3-yl)methyl]-2,3-dihydro-1,4-benzodioxine-6-sulfonamide] | > 10000
32 | COc1cccc2cc3c(=O)n(-c4ccccc4)nc-3oc12 [8-methoxy-2-phenyl-3-[1]benzopyrano[2,3-c]pyrazolone] | > 10000
33 | COc1ccccc1NC(=O)C1=C(C)N=C2CCCC(=O)C2C1c1ccc2c(c1)OCO2 (configuration not stated) [4-(1,3-benzodioxol-5-yl)-N-(2-methoxyphenyl)-2-methyl-5-oxo-4,6,7,8-tetrahydro-1H-quinoline-3-carboxamide] | 76.3
34 | Cc1ccc(S(=O)(=O)N2CCOCC(=O)NCCOCCNC(=O)COCC2)cc1 [16-(4-methylphenyl)sulfonyl-1,7,13-trioxa-4,10,16-triazacyclooctadecane-3,11-dione] | > 10000
35 | COc1cc(-c2nc3cnccc3n2C)cc(OC)c1OC [1-Methyl-2-(3,4,5-trimethoxy-phenyl)-1H-imidazo[4,5-c]pyridine] | > 10000
36 | CCN(CC)CCOC(=O)c1ccc(NC=C2C(=O)CC(C)(C)CC2=O)cc1 | > 10000
37 | CCOC(=O)c1c(Nc2nc(C)c(C(=O)NC)s2)sc(C)c1C [4,5-dimethyl-2-[[4-methyl-5-(methylcarbamoyl)-2-thiazolyl]amino]-3-thiophenecarboxylic acid ethyl ester] | > 10000
38 | CCC(=O)Nc1cccc(NC(=O)CSc2nnnn2Cc2ccccc2)c1 [MLS000068150] | > 10000
39 | COc1ccc(-c2nsc3c(N4CCN(C(=O)c5ccco5)CC4)ncnc23)cc1 [2-furanyl-[4-[3-(4-methoxyphenyl)-7-isothiazolo[4,5-d]pyrimidinyl]-1-piperazinyl]methanone] | 131
40 | O=C(CN1CCCC1)N1CCCc2c1c(=O)oc1ccc(OCc3ccccc3)cc21 [4-[1-oxo-2-(1-pyrrolidinyl)ethyl]-9-phenylmethoxy-2,3-dihydro-1H-[1]benzopyrano[3,4-b]pyridin-5-one] | 24.7
41 | Cc1cc(-c2ccccc2)nc(N2CCC(C(=O)NC(C)C)CC2)n1 [1-(4-Methyl-6-phenyl-pyrimidin-2-yl)-piperidine-4-carboxylic acid isopropylamide] | 69.3
42 | COC(=O)c1sc2nc(-c3ccco3)ccc2c1N [3-amino-6-(2-furanyl)-2-thieno[2,3-b]pyridinecarboxylic acid methyl ester] | 28.7
43 | COc1cc2c(cc1OC)CN(C(=O)CSc1nnc3scc(-c4ccccc4)n13)CC2 [1-(6,7-dimethoxy-3,4-dihydro-1H-isoquinolin-2-yl)-2-[(5-phenyl-3-thiazolo[2,3-c][1,2,4]triazolyl)thio]ethanone] | 584
44 | CCCn1c(C)nc2c(c1=O)c1nc3ccccc3nc1n2-c1ccc2c(c1)OCCO2 [MLS000042026] | > 10000
45 | CCOc1cc2[nH]c(=O)n(Cc3ccc(C(=O)NCCOC)cc3)c(=O)c2cc1OCC [MLS000120003] | 183
46 | O=C1C(Cl)=C(NCC2CCCO2)C(=O)N1Cc1ccccc1 (configuration not stated) [1-Benzyl-3-chloro-4-[(tetrahydro-furan-2-ylmethyl)-amino]-pyrrole-2,5-dione] | > 10000
47 | O=C(c1ccc(F)cc1)N1CCC(N2CCCCCC2)CC1 [MLS000037563] | > 10000
48 | CCOC(=O)N1CCN(C(=O)CCc2c(C)nc3c(c(C)nn3-c3ccc(C)c(C)c3)c2C)CC1 [4-[3-[1-(3,4-dimethylphenyl)-3,4,6-trimethyl-5-pyrazolo[3,4-b]pyridinyl]-1-oxopropyl]-1-piperazinecarboxylic acid ethyl ester] | 27.8
49 | COc1ccccc1NC(=O)CSc1nc(O)cc(=O)n1-c1ccccc1OC [N-(2-methoxyphenyl)-2-[1-(2-methoxyphenyl)-6-oxidanyl-4-oxidanylidene-pyrimidin-2-yl]sulfanyl-ethanamide] | > 10000
50 | COc1cc(C(=O)Nc2ccc3c(c2)OCO3)ccc1-n1cnnn1 [MLS000073665] | > 10000
51 | Cc1cc(=O)oc2cc(OC(C)C(=O)O)c(Cl)cc12 (configuration not stated) [2-(6-chloranyl-4-methyl-2-oxidanylidene-chromen-7-yl)oxypropanoic acid] | > 10000
52 | Cc1ccc(-n2c(SCC(=O)NCc3ccco3)nnc2-c2cccnc2)c(C)c1 [MLS000058402] | > 10000
